Laboratory results as given in ChEMBL document CHEMBL1152180, “Novel anthraquinone derivatives: synthesis via click chemistry approach and their induction of apoptosis in BGC gastric cancer cells via reactive oxygen species (ROS)-dependent mitochondrial pathway” (Bioorg Med Chem Lett, 2008).
Calls of active or inactive are those of the source. The calls are words filed in the database; no cut-off is given here.

Key:
[1] = test system: BGC; assay: Induction of apoptosis in human BGC cells assessed as loss of mitochondrial membrane potential at 10 uM by JC-1 staining based laser confocal microscopy; assay type: functional, cell-based
[2] = Cytotoxicity against human BGC cells by MTT assay; assay type: functional, cell-based
[3] = test system: BGC; assay: Induction of apoptosis in human BGC cells assessed as loss of mitochondrial membrane potential at 10 uM by flow cytometry; assay type: functional, cell-based
[4] = Induction of apoptosis in human BGC cells assessed as non apoptotic cell count at 25 uM after 24 hrs using Annexin-V-FITC PI stain by flow cytometry; assay type: functional
[5] = test system: BGC; assay: Induction of apoptosis in human BGC cells assessed as morphological changes at 12.5 uM by Hoechst staining based laser confocal microscopy; assay type: functional, cell-based
[6] = Induction of apoptosis in human BGC cells assessed as dead cell count at 25 uM after 24 hrs using Annexin-V-FITC PI stain by flow cytometry; assay type: functional
[7] = test system: BGC; assay: Induction of apoptosis in human BGC cells assessed as bursting of ROS in mitochondria at 5 uM by flow cytometry; assay type: functional, cell-based
[8] = Induction of apoptosis in human BGC cells assessed as late stage apoptotic cell count at 25 uM after 24 hrs using Annexin-V-FITC PI stain by flow cytometry; assay type: functional
[9] = test system: BGC; assay: Induction of apoptosis in human BGC cells assessed as bursting of ROS in mitochondria at 5 uM in presence of N-acetyl-cysteine; assay type: functional
[10] = Induction of apoptosis in human BGC cells assessed as early stage apoptotic cell count at 25 uM after 24 hrs using Annexin-V-FITC PI stain by flow cytometry; assay type: functional
[11] = test system: BGC; assay: Induction of apoptosis in human BGC cells assessed as bursting of ROS in mitochondria at 5 uM by DCFH-DA based fluorescence scanning confocal microscopy; assay type: functional, cell-based
[12] = Induction of apoptosis in human BGC cells assessed as accumulation at subG1 at 25 uM after 24 hrs by flow cytometry analysis; assay type: functional

Row | SMILES | Activity [1] | IC50 [2] [µM] | Activity [3] | Activity [4] [%] | Activity [5] | Activity [6] [%] | Activity [7] | Activity [8] [%] | Activity [9] | Activity [10] [%] | Activity [11] | Activity [12] [%]
1 | C[N+]1(CCn2cc(COc3cccc4c3C(=O)c3cccc(OCc5cn(CC[N+]6(C)CCCC6)nn5)c3C4=O)nn2)CCCC1 | Active | 6.52 | Dose-dependent effect |  |  |  |  |  |  |  |  | 
2 | C[N+]1(CCn2cc(COc3cccc4c3C(=O)c3cccc(OCc5cn(CC[N+]6(C)CCCCC6)nn5)c3C4=O)nn2)CCCCC1.[I-].[I-] | Active | 4.02 | Dose-dependent effect | 74.2 | Active | 2.1 | Dose-dependent effect | 1 | inactive | 22.8 | Active | 39.4
3 | C[N+]1(CCCn2cc(COc3cccc4c3C(=O)c3cccc(OCc5cn(CCC[N+]6(C)CC6)nn5)c3C4=O)nn2)CC1 | Active | 9.31 | Dose-dependent effect |  |  |  |  |  |  |  |  | 
